In paper PMC8375664 (Frontiers in Endocrinology, 2021):
Bridge positions count the residues as written; N and C are the ends. Square brackets hold non-standard residues; d marks the D form. Peptide text beside a SMILES is read from it. d2Nal = N[C@H](Cc1ccc2ccccc2c1)C(=O)O

Legend:
[1] = test system: human gut specimens (duodenum, ileum and colon); conditions: incubation of human gut specimens from duodenum; cited from earlier work
From the text: Glucagon-like peptide-1 (GLP-1) is a gastrointestinal hormone that is secreted from intestinal L-cells after meal intake. It acts to inhibit appetite and potentiate glucose-stimulated insulin secretion ([1]–[3]). These actions led to the development of GLP-1 based drugs, which have been used for more than a decade for type-2-diabetes treatment and recently also to induce weight loss. In parallel with the development and refinement of GLP-1 based drugs, research has been directed at uncovering the molecular mechanisms responsible for GLP-1 secretion, aiming to create a therapeutically relevant ...

[2] = test system: isolated perfused distal mouse small intestine; experiment: GLP-1 secretion from isolated perfused mouse small intestine, distal part; conditions: vascular administration at end of experiment
Method: (§1) Male Wistar rats (~250 g) and male C57BL/6JRj mice (~28 g, 11–12 weeks) were purchased from the Janvier Labs (Le Genest-Saint-Isle, France). Mice and rats were housed with ad libitum access to standard chow and water following a 12:12 h light:dark cycle and were acclimatized for a least a week before experiments. On the day of experiment, rats and mice were transferred to our perfusion facility and anesthetized with a subcutaneous injection of hypnorm/midazolam (rats) (0.3 ml/100 g body weight, per ml: 0.08 mg fentanyl, 2.5 mg fluanisone, 0.45 mg Methyl Parahydroxybenzoate, 0.05 mg Propyl Parahydroxybenzoate, Midazolam: 1.25 mg, Matrix Pharmaceuticals, Hellerup, Denmark) or with an intraperitoneal injection of Ketamine/Xylazine (0.1 ml/20 g) (90 mg/kg Ketamine, Ketaminol Vet, MSD Animal Health; 10 mg/kg Xylazine, Rompun Vet., Bayer Animal Health) respectively, to block the activity of pain sensing nerves and to induce surgical anesthesia. […]
(§2) Total GLP-1 concentrations in venous effluents were quantified using an in-house RIA (code: 89390) ([23]). […] Samples were assayed non-extracted and concentrations were calculated by a four-parameter interpolation to a standard curve containing synthetic GLP-1 7–36 amide (H-6795-GMP, Bachem, Bubendorf, Switzerland) ranging from 5 to 320 pmol/L. I^125-labeled GLP-1 7–36 amide (a gift from Novo Nordisk A/S, Bagssværd, Denmark) was used as tracer. […]

[3] = test system: isolated perfused mouse small intestine, upper half; experiment: GLP-1 secretion from isolated perfused mouse small intestine, upper half; conditions: vascular administration at end of experiments
Method: as §1, §2

[4] = test system: isolated perfused rat distal small intestine; experiment: GLP-1 secretion from isolated perfused rat distal small intestine
Method: as §1, with “anesthesia. For distal perfusions, the rat or mouse was placed on a heated operating table (37°C), the abdominal cavity was opened by a mid-line incision and the large intestine was excised after tying off the supplying vasculature. Furthermore, the upper half of the small intestine was removed. In the rat, the lower half of the small intestine (~50 cm) was retained and perfused in situ after insertion of a catheter into the upper mesenteric artery, while perfusion effluent was collected through a catheter inserted in the portal vein.” for “anesthesia.”
as §2

human MC4R = human MC4R (Homo sapiens, UniProt P32245); experiment: cAMP production by human MC4R in transfected COS-7 cells (agonist mode)
rat MC4R [5] = molecular target: T1, rat MC4R (Rattus norvegicus, UniProt P70596); experiment: cAMP production by rat MC4R in transfected COS-7 cells (agonist mode)
rat MC4R [6] = molecular target: T1, rat MC4R; experiment: Inhibition of agonist-induced cAMP production by rat MC4R in transfected COS-7 cells (antagonist mode)

T1 sequence (P70596 whole entry): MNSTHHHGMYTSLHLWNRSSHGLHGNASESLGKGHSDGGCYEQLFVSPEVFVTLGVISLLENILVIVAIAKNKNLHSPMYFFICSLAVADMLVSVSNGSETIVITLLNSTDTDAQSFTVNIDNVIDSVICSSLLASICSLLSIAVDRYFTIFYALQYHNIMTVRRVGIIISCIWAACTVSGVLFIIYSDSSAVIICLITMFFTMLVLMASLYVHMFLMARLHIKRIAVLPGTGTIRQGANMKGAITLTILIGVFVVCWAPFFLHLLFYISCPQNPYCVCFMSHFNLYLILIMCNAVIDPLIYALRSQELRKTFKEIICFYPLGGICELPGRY
Sequence of human MC4R (P32245 whole entry): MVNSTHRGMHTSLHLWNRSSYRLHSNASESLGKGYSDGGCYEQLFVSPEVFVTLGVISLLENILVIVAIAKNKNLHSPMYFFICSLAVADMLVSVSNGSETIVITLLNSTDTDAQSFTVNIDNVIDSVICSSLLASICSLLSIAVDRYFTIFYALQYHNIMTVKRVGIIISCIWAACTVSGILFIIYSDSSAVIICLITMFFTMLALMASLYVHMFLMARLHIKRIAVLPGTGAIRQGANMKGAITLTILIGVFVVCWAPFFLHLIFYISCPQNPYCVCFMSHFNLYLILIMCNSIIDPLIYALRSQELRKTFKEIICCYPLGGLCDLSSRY

With `CC(=O)N[C@@H](C)c1cc(Cl)ccc1C1CCN(C(=O)[C@@H]2CN(C(C)(C)C)C[C@H]2c2ccc(F)cc2F)CC1` [MK-0493] as the molecule, how does the “effect on GLP-1 and PYY secretion” value [1] read?
Its value is “increased”.

What does the source list for bombesin?
effect on GLP-1 output (positive control) [2]: robustly increased GLP-1 output; effect on GLP-1 output (positive control) [3]: robustly increased GLP-1 output

With `OC[C@H]1OC(O)[C@H](O)[C@@H](O)[C@@H]1O` (stereo partly shown) [glucose] as the molecule, how does the “total GLP-1 output during first luminal glucose stimulation, control experiment” value ([4]; luminal glucose 20% w/v, 15 min, baseline 1.8 ± 0.2 pmol, P <0.001, n = 6) read?
The value was 4.8 ± 0.34 pmol.

And the “total GLP-1 output during first luminal glucose stimulation, glucose + HS014 experiment (before HS014)” value ([4]; luminal glucose 20% w/v, 15 min, baseline 2.0 ± 0.5 pmol, P = 0.01, n = 6)?
Its value is 5.6 ± 1.0 pmol.

What about the “fold increase of GLP-1 secretion by luminal glucose” value ([4]; luminal glucose infusion) of the same molecule?
Its value is 2–3 fold.

With `CC(=O)N[C@H]1CSSC[C@@H](C(=O)N2CCC[C@H]2C(=O)N2CCC[C@H]2C(=O)N[C@@H](CCCCN)C(=O)N[C@@H](CC(=O)O)C(N)=O)NC(=O)CNC(=O)[C@H](Cc2c[nH]c3ccccc23)NC(=O)[C@H](CCCNC(=N)N)NC(=O)[C@@H](Cc2ccc3ccccc3c2)NC(=O)[C@H](Cc2c[nH]cn2)NC(=O)[C@H](CCC(=O)O)NC1=O` [HS014] (Ac-CEH[d2Nal]RWGCPPKD-NH2; disulfide 1-8) as the molecule, how does the EC50 (human MC4R) read?
Its EC50 is 0.035 µM.

What about the EC50 (rat MC4R [5]) of the same molecule?
The EC50 was 0.0158 µM.

What about the Emax (rat MC4R [5]; COS-7, read-out: Emax on rat MC4R relative to alpha-MSH Emax) of the same molecule?
Its Emax is roughly 40%.

What about the IC50 (rat MC4R [6]) of the same molecule?
The IC50 was 0.00631 µM.
